Test results published in patent publication US20230301947A1, “COMPOUND FOR PREVENTING AND TREATING PSYCHIATRIC DISORDERS AND USE THEREOF” (SHANGHAI INSTITUTE OF MATERIA MEDICA, CHINESE ACADEMY OF …, priority 2020, published 2023).

Columns and labels:
C57 mice [1] = experiment: Forced swimming experiment in normal mice; assay type: in vivo; conditions: C57 male mice, intraperitoneal; for immobility time in forced swimming test: compared with vehicle group
Procedure: (§1) The forced swimming test system is primarily used in antidepressant studies.
(§2) Experimental operation: Mice were individually placed in a cylindrical glass tank 30 cm high and 20 cm in diameter, with a water depth of 15 cm (20 cm for rats), so that the mice are unable to escape from the glass tank and their feet and tails can not touch the bottom of the tank. The water temperature was 23° C.-25° C. The mice were filmed for 6 minutes after entering the water. Since most of the mice were very active in the first two minutes, the last 4 minutes of immobility time were calculated (criteria for determining immobility: the mice stopped struggling in the water, immobility and fine limb movements to maintain balance or float). Groups of mice were operated in parallel.
CLA096: Three doses were set up in this example, the low, medium and high doses were 5 mg/kg, 20 mg/kg and 40 mg/kg, respectively. The compound was dissolved in 0.5% Tween-40 and sonicated, and should be used right after it was ready.
Fluoxetine (FLX): FLX with a dose of 10 mg/kg; dissolved in double distilled water, and should be used right after it was ready.

SD rats [2] = experiment: Open field test in rats (control and ACTH-induced refractory depression model); assay type: in vivo; conditions: normal animals and ACTH model animals (SD rats); 20 mg/kg intraperitoneal, tested 30 min after administration
Source text: Open field test, also known as the open box test, is a method to evaluate the autonomous behavior, exploratory behavior and anxiety-like behavior of experimental animals in a novel environment. The frequency and duration of the normal activities, the fear of the open environment and the exploration of the new environment and other behaviors of the experimental animals in the open box are used to reflect the autonomous behavior and exploratory behavior of the experimental animals in the unfamiliar environment. The results of the open-field experiments were analyzed to evaluate the depression and anxiety-like behaviors of the animals.
Experimental operation: the experimental animals were placed in the behavior room 2 hours before the experiment. The animals were placed in the center of the bottom of a black plastic box (size 100*100*45 cm) during the experiment, while video filming was performed. The experiment time was 10 minutes and was conducted in a quiet environment. […] The video was analyzed using the animal spontaneous activity analysis software to obtain information of central area activity time (anxiety-like behavior), total distance of activities (exercise ability), and number of wall climbing (novel environment exploratory behavior) and the like, which can be used to judge the depression or anxiety-like behavior of the animal and degree thereof. […]

mice = experiment: 14-day subacute toxicity test in mice; assay type: in vivo; conditions: male and female mice; 5, 50 and 100 mg/kg intraperitoneal, once a day, 14 days
Procedure: Test drug configuration: CLA096: Three doses were set up: 5 mg/kg, 50 mg/kg and 100 mg/kg, respectively.

C57 mice [3] = experiment: Novelty-suppressed feeding experiment in normal mice; assay type: in vivo; conditions: C57 male mice, intraperitoneal
Procedure: Novelty-suppressed feeding experiment (NSF) is a conflict between feeding occurred in a novel environment in a state of starvation after fasting and fear of novel environment. Long-term administration of antidepressant drugs can reduce the conflict response ability of animals, which is manifested by shortened incubation period of the start of feeding. This model is currently widely used in the evaluation of antidepressant and anti-anxiety efficacy.
The experimental equipment was a 35 cm*35 cm*30 cm (L*W*H) open box, which was overspread with substrate, and a white filter paper with a diameter of 5 cm was placed in the open box, and 2 pieces of food were placed in the middle of the filter paper. The animals were fasted for 12 h before the administration of the drug.
Two hours before the behavioral test, the animal were moved into the functional room for 2 h to acclimatize. […] The animal were placed from the edge of the experimental open box, and the animal were regarded as successful feeding if their mouths touched the food within 10 min, and then the animal were removed immediately and the time of successful feeding (i.e. Novelty latency) was calculated. The animal were then placed in the normal feeding cage and the time from placement to feeding (i.e. Habituation latency) was also calculated. […] The whole experiment was recorded by camera, and the data were processed and analyzed offline. […]

SD rats [4] = experiment: Forced swimming test in rats (control and ACTH-induced refractory depression model); assay type: in vivo; conditions: 20 mg/kg intraperitoneal, tested 30 min after administration; for antidepressant effect in forced swimming: ACTH group SD rats (refractory depression model)
Procedure: as §1, §2
An animal model of refractory depression was induced in SD rats by continuous intraperitoneal injection of adrenocorticotropic hormone (ACTH) for 3 weeks. This model can block the effects of tricyclic antidepressants and some SSRIs antidepressants, but can not block the efficacy of ketamine and electroconvulsive therapy (ETC). Since ketamine and ETC have specific efficacy in refractory depression, this animal model can be used to preliminary evaluate whether the drug have efficacy in refractory depression.
1. SD rats in the model group (ACTG) were continuously injected with ACTH for 3 weeks (once/day), and the test drug was injected intraperitoneally 24 h after the last administration of ACTH. The rats in the control group (CON) were continuously injected intraperitoneally with 0.9% saline (once/day) and similarly the test drug was injected intraperitoneally 24 h after the last administration of saline.
3. After the open-field experiment, ACTH was continued to be injected, and after 24 h, the above test drug was injected intraperitoneally and forced swimming was tested 30 min after the administration.

TREK-1 ion channel = target: T1, TREK-1 ion channel (Homo sapiens, UniProt O95069); experiment: Whole-cell membrane clamp recording of TREK-1 channel current in transfected CHO-K1 cells; assay type: cell-based
T1 construct: expressed in transfected cells; host or cells: CHO-K1
T1 sequence (O95069 1-426): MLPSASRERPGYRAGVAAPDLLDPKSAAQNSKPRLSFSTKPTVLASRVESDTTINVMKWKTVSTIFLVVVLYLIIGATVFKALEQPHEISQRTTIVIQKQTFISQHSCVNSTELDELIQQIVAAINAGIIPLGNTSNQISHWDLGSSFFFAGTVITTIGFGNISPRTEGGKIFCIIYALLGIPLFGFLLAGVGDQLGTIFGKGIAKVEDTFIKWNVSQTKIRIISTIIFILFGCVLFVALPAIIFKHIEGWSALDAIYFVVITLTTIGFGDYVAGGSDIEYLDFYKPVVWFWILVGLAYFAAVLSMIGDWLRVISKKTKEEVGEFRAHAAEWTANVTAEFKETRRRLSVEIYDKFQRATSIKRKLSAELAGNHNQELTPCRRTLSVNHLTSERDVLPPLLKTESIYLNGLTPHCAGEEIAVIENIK
Procedure: Cells were transfected using a cationic liposome transfection method, and the target gene TREK-1 plasmid protein was heterologously expressed in CHO-K1 cells according to the operating standard instructions of Lipo3000 transfection reagent. The ion channel protein was expressed in the cells for 24-48 h followed by electrophysiological experiments.
Whole-cell membrane clamp recording mode was used for electrophysiological experiments. The transfected cells were placed in a bath containing extracellular fluid, the resistance of the drawn electrode is 3-7 MΩ, the electrode was filled with intracellular fluid, the polished electrode was used to contact the cell membrane, the positive voltage was removed and the negative voltage was gently applied to form a high impedance seal, and then the cell membrane was broken by continuing to apply negative voltage, i.e. whole-cell recording mode was formed. The sampling frequency of the electrophysiological amplifier was 10 kHz, and the data sampling was controlled using a DigiData 1440A conversion interface. The software used for collecting and analyzing whole-cell recording experimental data is Clamfit 10.7, the software used for data analysis and graphing is Origin 8.1, and the software used for statistical analysis is SPSS.
CLA096: Three doses were set up in this example. The drug was firstly dissolved in DMSO and then diluted with tri-distilled water to […]: 5 µM, 10 µM and 20 µM, respectively.
The experiment was performed using a cell membrane clamp method to record the current of TREK-1 ion channel in whole cells. Protocol A0 was chosen to record the currents of cells at -80 mV, -60 mV, -40 mV, -20 mV, 0 mV, 20 mV, 40 mV, 60 mV and 80 mV, and Protocol A0 was repeated with different concentrations such as 5 µM, 10 µM and 20 µM of CLA096 being perfused, respectively. After administration, whether it can be eluted was tested.

[5] = CLA096 5, 20, 40 mg/kg vs positive control fluoxetine

In the case of `CNCCC(Oc1ccc(C(F)(F)F)cc1)c1ccccc1` (stereo not drawn) [Fluoxetine, reference compound], the “immobility time in forced swimming test” value (C57 mice [1]; fluoxetine 10 mg/kg (table says 20)) is reported as “significantly reduces the immobility time”.

`CN(Cc1ccccc1)C(=O)CN(c1ccc(Cl)cc1)S(C)(=O)=O` [CLA096, N-benzyl-2-(N-(4-chlorophenyl)methylsulfonylamino)-N-methylacetamide] was tested, and the “effect on forced swimming immobility time compared with fluoxetine” value (C57 mice [1]; [5]) was “significantly better than fluoxetine”, the “immobility time in forced swimming test” value (C57 mice [1]; CLA096 5, 20 and 40 mg/kg) was “significantly reduces the immobility time of animals at all doses” and the “total movement distance in open field” value (SD rats [2]) was “no significant difference”. The body weight change (mice) was “no significant changes in body weight”, the “effect on feeding latency compared with fluoxetine” value (C57 mice [3]; [5]) was “significantly better than fluoxetine” and the “latency of feeding of fasted mice (novelty-suppressed feeding)” value (C57 mice [3]; CLA096 5, 20 and 40 mg/kg, compared with vehicle group) was “significantly reduced the latency value”. The “antidepressant effect in forced swimming” value (SD rats [4]) was “remained significant”, the “immobility time of forced swimming” value (SD rats [4]; control (CON) group SD rats) was “significantly reduced the immobility time” and the “swimming time in forced swimming” value (SD rats [4]; control (CON) group SD rats) was “significantly increased the swimming time”. For the same compound, the “inhibition rate of TREK-1 channel open current” value (from here on “inhibition rate”) (TREK-1 ion channel; 5 µM CLA096) was 0.75 ± 0.02, the “inhibition rate” value (TREK-1 ion channel; 10 µM CLA096) was 0.55 ± 0.05 and the “inhibition rate” value (TREK-1 ion channel; 20 µM CLA096) was 0.59 ± 0.01.

With `CNC1(c2ccccc2Cl)CCCCC1=O` (stereo not drawn) [Ketamine] the “total movement distance in open field” value (SD rats [2]) was “no significant difference”, the “antidepressant effect in forced swimming” value (SD rats [4]) was “remained significant” and the “immobility time of forced swimming” value (SD rats [4]; control (CON) group SD rats) was “significantly reduced the immobility time”.

In the case of `CN(C)CCCN1c2ccccc2CCc2ccccc21` [Imipramine], the “antidepressant effect in forced swimming” value (SD rats [4]) is reported as “blocked” and the “immobility time of forced swimming” value (SD rats [4]; control (CON) group SD rats) is reported as “significantly reduced the immobility time”.
